Measured values published in US20230219956A1 (BETTA PHARMACEUTICALS CO.,LTD, priority 2019, published 2023).

Columns and labels:
H358 cells = test: Cell proliferation assay, H358 cells (Cell-titer Glo); format: cell-based; details: Homo sapiens, NCI-H358, 96 h incubation
Procedure: (§1) Pave the H358 cells on a 96-well ultra-low adsorption plate with 2000 cells and 190 μL/well. After incubating overnight, compound solutions of gradient concentration was prepared, and added 10 μL of DMSO solution of the test compound of each concentration to the cells of each well. The final concentration of the compound is 10000, 3333.3, 1111.1, 370.4, 123.5, 41.2, 13.7, 4.6, 1.5, 0 nM (the final concentration of DMSO is 0.25%). Incubated for 96 h at 37° C. and 5% CO2. 50 μL of Cell-titer Glo working solution was added to each well, shaked and mixed, and incubated at room temperature for 10 minutes. The multi-functional microplate reader read the luminescence value, and converted the luminescence value reading into inhibition percentage.
(§2) Inhibition percentage=(maximum value−reading)/(maximum value−minimum value)*100.
(§3) The “maximum value” was the DMSO control, the “minimum value” indicates the cell-free control group.
(§4) Graphpad Prism software was used to perform curve fitting and obtain IC50 value.
Refer to table 3 for the IC50 data of some compounds in the Examples for inhibiting H358 cells.

MIA-PACA-2 cells = test: Cell proliferation assay, MIA-PACA-2 cells (Cell-titer Glo); format: cell-based; details: Homo sapiens, 96 h incubation
Procedure: as §1, with “the MIA-PACA-2” for “the H358”, “cells into” for “cells on”, “plate at 600 cells, 160” for “plate with 2000 cells and 190”, “added 40” for “added 10”, “10000, 2000, 400, 80, 16, 3.2, 0.64, 0.12, 0.025,” for “10000, 3333.3, 1111.1, 370.4, 123.5, 41.2, 13.7, 4.6, 1.5,”
as §2, §3, §4
Refer to Table 3 for the IC50 data of some compounds in the examples inhibiting MIA-PACA-2 cells.

Structure (SMILES) | IC50 (H358 cells) [nM] | IC50 (MIA-PACA-2 cells) [nM]
C=CC(=O)N1CC2(CCN(c3nc(C4CN(CCC#N)C4)nc4c(OCC(F)(F)F)c(-c5c(C)ccc6[nH]ncc56)c(CC)cc34)CC2)C1 [Example 39, 3-(3-(4-(2-acryloyl-2,7-diazaspiro[3.5]nonan-7-yl)-6-ethyl-7-(5-methyl-1H-indazol-4-yl)-8-(2,2,2-trifluoroethoxy)quinazolin-2-yl)azetidin-1-yl)propionitrile] | 97.8 | 78
C=CC(=O)N1CC2(CCN(c3nc(C4CCN(C)CC4)nc4c(OCC(C)(C)O)c(-c5c(C)ccc6[nH]ncc56)c(C=C)cc34)CC2)C1 [Example 47, 1-(7-(8-(2-hydroxy-2-methylpropoxy)-7-(5-methyl-1H-indazol-4-yl)-2-(1-methylpiperidin-4-yl)-6-vinylquinazoline-4-yl)-2,7-diazaspiro[3.5]nonan-2-yl)prop-2-en-1-one] | 39 | 47.7
C=CC(=O)N1CC2(CCN(c3nc(C4CCN(C)CC4)nc4c(OCC5(C#N)CC5)c(-c5c(C)ccc6[nH]ncc56)c(C=C)cc34)CC2)C1 [Example 49] | 11.5 | 9.8
C=CC(=O)N1CC2(C1)CN(c1nc(C3CCN(C)CC3)nc3c(OCC(F)(F)F)c(-c4c(C)ccc5[nH]ncc45)c(C=C)cc13)C2 [Example 50, 1-(6-(7-(5-methyl-1H-indazol-4-yl)-2-(1-methylpiperidin-4-yl)-8-(2,2,2-trifluoroethoxy)-6-vinylquinazolin-4-yl)-2,6-diazaspiro[3.3]heptane-2-yl)prop-2-en-1-one] | 243 | 278
C=CC(=O)N1CCN(c2nc(C3CCN(C)CC3)nc3c(OCC(F)(F)F)c(-c4c(C)ccc5[nH]ncc45)c(C=C)cc23)[C@@H](C)C1 [Example 52, 1-((3S)-3-methyl-4-(7-(5-methyl-1H-indazole-4-yl)-2-(1-methylpiperidin-4-yl)-8-(2,2,2-trifluoroethoxy)-6-vinylquinazolin-4-yl)piperazin-1-yl) propyl-2-en-1-one] | 104 | 114
C=CC(=O)N1CC2(CCN(c3nc(C4CCN(C)CC4)nc4c(OCC(F)(F)F)c(-c5c(C)cnc6[nH]ncc56)c(C=C)cc34)CC2)C1 [Example 53, 1-(7-(7-(5-methyl-1H-pyrazolo[3,4-b]pyridin-4-yl)-2-(1-methylpiperidine-4-yl)-8-(2,2,2-trifluoroethoxy)-6-vinylquinazolin-4-yl)-2,7-diazaspiro[3.5]nonan-2-yl)prop-2-en-1-one] | 163 | 105
C=CC(=O)N1CC2(CCN(c3nc(C4CCN(C)CC4)nc4c(OCC(F)(F)F)c(-c5c(C)ncc6[nH]ncc56)c(C=C)cc34)CC2)C1 [Example 56, 1-(7-(7-(5-methyl-1H-pyrazolo [3,4-c]pyridin-4-yl)-2-(1-methylpiperidine-4-yl)-8-(2,2,2-trifluoroethoxy)-6-vinylquinazolin-4-yl)-2,7-diazaspiro[3.5]nonan-2-yl) prop-2-en-1-one] | 2520 | 2580
C=CC(=O)N1CC2(CCN(c3nc(C4CCN(CCS(C)(=O)=O)CC4)nc4c(OCC(F)(F)F)c(-c5c(C)ccc6[nH]ncc56)c(C=C)cc34)CC2)C1 [Example 57, 1-(7-(7-(5-methyl-1H-indazol-4-yl)-2-(1-(2-(methylsulfonyl)ethyl)piperidine-4-yl)-8-(2,2,2-trifluoroethoxy)-6-vinylquinazolin-4-yl)-2,7-diazaspiro[3.5]nonan-2-yl) prop-2-en-1-one] | 7.3 | 6.8
C=CC(=O)N1CC2(CCN(c3nc(C4CCN(CC(C)(C)O)CC4)nc4c(OCC(F)(F)F)c(-c5c(C)ccc6[nH]ncc56)c(C=C)cc34)CC2)C1 [Example 60] | 4.1 | 4

Results, then the compound that gave them:

IC50 (H358 cells) [nM] | IC50 (MIA-PACA-2 cells) [nM] | Structure (SMILES)
39 | 47.7 | C=CC(=O)N1CC2(CCN(c3nc(C4CN(C5COC5)C4)nc4c(OCC(F)(F)F)c(-c5c(C)ccc6[nH]ncc56)c(CC)cc34)CC2)C1 [Example 40, 1-(7-(6-ethyl-7-(5-methyl-1H-indazole-4-yl)-2-(1-(oxacyclobutan-3-yl)azacyclobutane-3-yl)-8-(2,2,2-trifluoroethoxy)quinazolin-4-yl) 2,7-diazspiro [3.5]nonan-2-yl) propyl-2-en-1-one]
19.6 | 29.6 | C=CC(=O)N1CC2(CCN(c3nc(C4CN(C5CCOCC5)C4)nc4c(OCC(F)(F)F)c(-c5c(C)ccc6[nH]ncc56)c(CC)cc34)CC2)C1 [Example 42, 1-(7-(6-ethyl-7-(5-methyl-1H-indazole-4-yl)-2-(1-(tetrahydro-2H-pyran-4-yl)azacyclobutane-3-yl)-8-(2,2,2-trifluoroethoxy)quinazolin-4-yl)-2,7-diazspiro [3.5]nonan-2-yl) propyl-2-en-1-one]
315 | 378 | C=CC(=O)N1CC2(CCN(c3nc(C4CN(C5CCC5)C4)nc4c(OCC(F)(F)F)c(-c5c(C)ccc6[nH]ncc56)c(CC)cc34)CC2)C1 [Example 43, 1-(7-(2-(1-cyclobutylazocyclobutane-3-yl)-6-ethyl-7-(5-methyl-1H-indazole-4-yl)-8-(2,2,2-trifluoroethoxy)quinazolin-4-yl)-2,7-diazarospiro [3.5]nonan-2-yl) propyl-2-en-1-one]
155 | 169 | C=CC(=O)N1CC2(CCN(c3nc(C4CN(C5CCCC5)C4)nc4c(OCC(F)(F)F)c(-c5c(C)ccc6[nH]ncc56)c(CC)cc34)CC2)C1 [Example 44, 1-(7-(2-(1-cyclopentyl-azacyclobutane-3-yl)-6-ethyl-7-(5-methyl-1H-indazole-4-yl)-8-(2,2,2-trifluoroethoxy)quinazolin-4-yl)-2,7-diazarospiro [3.5]nonan-2-yl) propyl-2-en-1-one]
466 | 778 | C=CC(=O)N1CC2(CCN(c3nc(C4CN(C(=O)C5CC5)C4)nc4c(OCC(F)(F)F)c(-c5c(C)ccc6[nH]ncc56)c(CC)cc34)CC2)C1 [Example 45, 1-(7-(2-(1-(Cyclopropanecarbonyl)azacyclobutane-3-yl)-6-ethyl-7-(5-methyl-1H-indazol-4-yl)-8-(2,2,2-trifluoroethoxy)quinazolin-4-yl)-2,7-diazaspo [3.5]nonan-2-yl) propyl-2-en-1-one]
37 | 34 | C=CC(=O)N1CC2(CCN(c3nc(C4CN(CC)C4)nc4c(OCC(F)(F)F)c(-c5c(C)ccc6[nH]ncc56)c(CC)cc34)CC2)C1 [Example 46, 1-(7-(6-ethyl-2-(1-ethyl-azacyclobutane-3-yl)-7-(5-methyl-1H-indazole-4-yl)-8-(2,2,2-trifluoroethoxy)quinazolin-4-yl)-2,7-diazarospiro [3.5]nonan-2-yl) propyl-2-en-1-one]
11.5 | 9.8 | C=CC(=O)N1CC2(CCN(c3nc(C4CCN(C)CC4)nc4c(OCC(F)F)c(-c5c(C)ccc6[nH]ncc56)c(C=C)cc34)CC2)C1 [Example 48, 1-(7-(8-(2,2-difluoroethoxy)-7-(5-methyl-1H-indazol-4-yl)-2-(1-methylpiperidin-4-yl)-6-vinylquinazolin-4-yl)-2,7-diazspiro [3.5]nonan-2-yl) propyl-2-en-1-one]
462 | 188 | C=CC(=O)N1CCC2(CC1)CN(c1nc(C3CCN(C)CC3)nc3c(OCC(F)(F)F)c(-c4c(C)ccc5[nH]ncc45)c(C=C)cc13)C2 [Example 51, 1-(2-(7-(5-methyl-1H-indazol-4-yl)-2-(1-methylpiperidin-4-yl)-8-(2,2,2-trifluoroethoxy)-6-vinylquinazolin-4-yl)-2,7-diazspiro [3.5]nonan-2-yl) propyl-2-en-1-one]
6.4 | 6.9 | C=CC(=O)N1CC2(CCN(c3nc(C4CCN(CCC#N)CC4)nc4c(OCC(F)(F)F)c(-c5c(C)ccc6[nH]ncc56)c(C=C)cc34)CC2)C1 [Example 59, 3-(4-(4-(2-acryloyl-2,7-diazazospiro [3.5]nonan-7-yl)-7-(5-methyl-1H-indazole-4-yl)-8-(2,2,2-trifluoroethoxy)-6-vinylquinazolin-2-yl)piperidin-1-yl) propionitrile]
4.9 | 8 | C=CC(=O)N1CC2(CCN(c3nc(C4CCN(CCO)CC4)nc4c(OCC(F)(F)F)c(-c5c(C)ccc6[nH]ncc56)c(C=C)cc34)CC2)C1 [Example 61, 1-(7-(2-(1-(2-(hydroxyethyl))piperidin-4-yl)-7-(5-methyl-1H-indazole-4-yl)-8-(2,2,2-trifluoroethoxy)-6-vinylquinazolin-4-yl)-2,7-diazarospiro [3.5]nonan-2-yl) propyl-2-en-1-one]
29.3 | 43.5 | C=CC(=O)N1CC2(CCN(c3nc(C4CCN(C(=O)OC)CC4)nc4c(OCC(F)(F)F)c(-c5c(C)ccc6[nH]ncc56)c(C=C)cc34)CC2)C1 [Example 62, Methyl 4-(4-(2-acryloyl-2,7-diazspiro [3.5]nonan-7-yl)-7-(5-methyl-1H-indazole-4-yl)-8-(2,2,2-trifluoroethoxy)-6-vinylquinazolin-2-yl) piperidine-1-carboxylic acid]
